Measured values as given in the supplement of paper PMC10307832.

What was measured:
Assay in all cases: relative viability (nuclei count vs DMSO), 5 days (fraction); higher = more cells survive
[1] = system: NCI-H1623
Summary of the method: (§1)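 Dosing by pin tool came one day after lung cancer cell lines were seeded in 1536-well plates, using either one drug or a fixed anchor-drug dose plus five library-drug doses (not always all listed) in √10 steps. After 5 days, nuclei were counted on 4× images. Relative viability is treated-well nuclei count divided by vehicle-well nuclei count, and values are medians of duplicate plates.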

[2] = system: CAL-12T
Summary of the method: as §1

[3] = system: NCI-H1648
Summary of the method: as §1

[4] = system: NCI-H1703
Summary of the method: as §1

[5] = system: EBC-1
Summary of the method: as §1

[6] = system: A549
Summary of the method: as §1

[7] = system: NCI-H1299
Summary of the method: as §1

[8] = system: IA-LM
Summary of the method: as §1

[9] = system: Calu-6
Summary of the method: as §1

## COc1cc(N2CCC(C(N)=O)CC2)ccc1Nc1nc(N)c(Cl)c(Nc2ccccc2S(=O)(=O)C(C)C)n1 [HG-5-88-01] + CCNC(=O)c1noc(-c2cc(C(C)C)c(O)cc2O)c1-c1ccc(CN2CCOCC2)cc1 [Luminespib] (partner 0.01 µM)
[1]; first compound 0.04 µM
  relative viability: 0.539
[1]; first compound 0.1265 µM
  relative viability: 0.619
[1]; first compound 0.4 µM
  relative viability: 0.529
[1]; first compound 4 µM
  relative viability: 0.47
[2]; first compound 0.04 µM
  relative viability: 0.583
[2]; first compound 0.1265 µM
  relative viability: 1.02
[2]; first compound 0.4 µM
  relative viability: 0.36
[2]; first compound 1.265 µM
  relative viability: 0.392
[2]; first compound 4 µM
  relative viability: 0.255

## COc1cc(N2CCC(C(N)=O)CC2)ccc1Nc1nc(N)c(Cl)c(Nc2ccccc2S(=O)(=O)C(C)C)n1 [HG-5-88-01] + COc1cccc2cc(-c3nc([C@H]4CC[C@H](C(=O)O)CC4)n4ncnc(N)c34)[nH]c12 [OSI-027] (partner 0.5 µM)
[1]; first compound 0.04 µM
  relative viability: 0.451
[1]; first compound 0.1265 µM
  relative viability: 0.378
[1]; first compound 0.4 µM
  relative viability: 0.408
[1]; first compound 4 µM
  relative viability: 0.296
[3]; first compound 0.04 µM
  relative viability: 0.257
[3]; first compound 0.1265 µM
  relative viability: 0.258
[3]; first compound 0.4 µM
  relative viability: 0.259
[3]; first compound 1.265 µM
  relative viability: 0.28
[3]; first compound 4 µM
  relative viability: 0.29
[2]; first compound 0.04 µM
  relative viability: 0.491
[2]; first compound 0.1265 µM
  relative viability: 0.672
[2]; first compound 0.4 µM
  relative viability: 0.612
[2]; first compound 1.265 µM
  relative viability: 0.208
[2]; first compound 4 µM
  relative viability: 0.173

## CC(C)Oc1cc(Nc2nc(N[C@@H](C)c3ccc(F)cn3)ncc2Cl)n[nH]1 [AZ23] + Cc1nc(Nc2ncc(C(=O)Nc3c(C)cccc3Cl)s2)cc(N2CCN(CCO)CC2)n1 [Dasatinib] (partner 0.075 µM)
[1]; first compound 0.01 µM
  relative viability: 0.503
[1]; first compound 0.03162 µM
  relative viability: 0.578
[1]; first compound 0.3162 µM
  relative viability: 0.57
[2]; first compound 0.03162 µM
  relative viability: 0.363
[2]; first compound 0.3162 µM
  relative viability: 0.221

## Clc1ccc(Nc2nnc(Cc3ccncc3)c3ccccc23)cc1 [Vatalanib] + Cc1cc(Nc2cc(N3CCN(C)CC3)nc(Sc3ccc(NC(=O)C4CC4)cc3)n2)n[nH]1 [Tozasertib] (partner 0.1 µM)
[1]; first compound 0.04 µM
  relative viability: 0.415
[1]; first compound 0.1265 µM
  relative viability: 0.435
[1]; first compound 0.4 µM
  relative viability: 0.455
[1]; first compound 1.265 µM
  relative viability: 0.374
[1]; first compound 4 µM
  relative viability: 0.393
[3]; first compound 0.04 µM
  relative viability: 0.581
[3]; first compound 0.1265 µM
  relative viability: 0.442
[3]; first compound 0.4 µM
  relative viability: 0.483
[3]; first compound 1.265 µM
  relative viability: 0.523
[3]; first compound 4 µM
  relative viability: 0.419
[2]; first compound 0.04 µM
  relative viability: 0.307
[2]; first compound 0.1265 µM
  relative viability: 0.297
[2]; first compound 0.4 µM
  relative viability: 0.304
[2]; first compound 1.265 µM
  relative viability: 0.266
[2]; first compound 4 µM
  relative viability: 0.277

## CC(C)Oc1cc(Nc2nc(N[C@@H](C)c3ccc(F)cn3)ncc2Cl)n[nH]1 [AZ23] + CCNC(=O)c1noc(-c2cc(C(C)C)c(O)cc2O)c1-c1ccc(CN2CCOCC2)cc1 [Luminespib] (partner 0.01 µM)
[1]; first compound 0.01 µM
  relative viability: 0.476
[1]; first compound 0.03162 µM
  relative viability: 0.49
[1]; first compound 0.3162 µM
  relative viability: 0.529
[2]; first compound 0.03162 µM
  relative viability: 0.364
[2]; first compound 0.3162 µM
  relative viability: 0.568

## Clc1ccc(Nc2nnc(Cc3ccncc3)c3ccccc23)cc1 [Vatalanib] + Cc1nc(Nc2ncc(C(=O)Nc3c(C)cccc3Cl)s2)cc(N2CCN(CCO)CC2)n1 [Dasatinib] (partner 0.075 µM)
[1]; first compound 0.04 µM
  relative viability: 0.449
[1]; first compound 0.1265 µM
  relative viability: 0.619
[1]; first compound 0.4 µM
  relative viability: 0.545
[1]; first compound 1.265 µM
  relative viability: 0.533
[1]; first compound 4 µM
  relative viability: 0.435
[2]; first compound 0.04 µM
  relative viability: 0.526
[2]; first compound 0.1265 µM
  relative viability: 0.351
[2]; first compound 0.4 µM
  relative viability: 0.464
[2]; first compound 1.265 µM
  relative viability: 0.28
[2]; first compound 4 µM
  relative viability: 0.374

## Clc1ccc(Nc2nnc(Cc3ccncc3)c3ccccc23)cc1 [Vatalanib] + O=C(c1cc(Cc2n[nH]c(=O)c3ccccc23)ccc1F)N1CCN(C(=O)C2CC2)CC1 [Olaparib] (partner 8 µM)
[4]; first compound 0.04 µM
  relative viability: 0.506
[4]; first compound 0.4 µM
  relative viability: 0.624
[4]; first compound 1.265 µM
  relative viability: 0.299
[4]; first compound 4 µM
  relative viability: 0.22
[3]; first compound 0.04 µM
  relative viability: 0.943
[3]; first compound 0.1265 µM
  relative viability: 0.866
[3]; first compound 0.4 µM
  relative viability: 1.01
[3]; first compound 1.265 µM
  relative viability: 0.611
[3]; first compound 4 µM
  relative viability: 1.04
[5]; first compound 0.04 µM
  relative viability: 0.761
[5]; first compound 0.1265 µM
  relative viability: 0.59
[5]; first compound 0.4 µM
  relative viability: 0.817
[5]; first compound 1.265 µM
  relative viability: 0.663
[5]; first compound 4 µM
  relative viability: 0.654
[6]; first compound 0.04 µM
  relative viability: 0.478
[6]; first compound 0.1265 µM
  relative viability: 0.302
[6]; first compound 0.4 µM
  relative viability: 0.532
[6]; first compound 1.265 µM
  relative viability: 0.239
[6]; first compound 4 µM
  relative viability: 0.3
[7]; first compound 0.04 µM
  relative viability: 0.986
[7]; first compound 0.1265 µM
  relative viability: 0.924
[7]; first compound 0.4 µM
  relative viability: 1.04
[7]; first compound 1.265 µM
  relative viability: 0.923
[7]; first compound 4 µM
  relative viability: 0.965
[8]; first compound 0.04 µM
  relative viability: 0.89
[8]; first compound 0.1265 µM
  relative viability: 0.843
[8]; first compound 0.4 µM
  relative viability: 0.831
[8]; first compound 1.265 µM
  relative viability: 0.701
[8]; first compound 4 µM
  relative viability: 0.645
[9]; first compound 0.1265 µM
  relative viability: 0.567
[9]; first compound 0.4 µM
  relative viability: 0.539
[9]; first compound 1.265 µM
  relative viability: 0.554
[9]; first compound 4 µM
  relative viability: 0.541
[2]; first compound 0.04 µM
  relative viability: 0.692
[2]; first compound 0.1265 µM
  relative viability: 0.645
[2]; first compound 0.4 µM
  relative viability: 0.773
[2]; first compound 1.265 µM
  relative viability: 0.697
[2]; first compound 4 µM
  relative viability: 0.672

## C[C@@H]1CN(CC(=O)Nc2ccc3c(c2)Cc2cccc(-c4cc(=O)cc(N5CCOCC5)o4)c2S3)C[C@H](C)O1 + Cc1nc(Nc2ncc(C(=O)Nc3c(C)cccc3Cl)s2)cc(N2CCN(CCO)CC2)n1 [Dasatinib] (partner 0.075 µM)
[1]; first compound 0.04 µM
  relative viability: 0.57
[1]; first compound 0.1265 µM
  relative viability: 0.555
[1]; first compound 0.4 µM
  relative viability: 0.51
[1]; first compound 4 µM
  relative viability: 0.588
[2]; first compound 0.04 µM
  relative viability: 0.515
[2]; first compound 0.1265 µM
  relative viability: 0.535
[2]; first compound 0.4 µM
  relative viability: 0.429
[2]; first compound 4 µM
  relative viability: 0.2

## CC(C)Oc1cc(Nc2nc(N[C@@H](C)c3ccc(F)cn3)ncc2Cl)n[nH]1 [AZ23] + N=C(N)NC(=N)NCCc1ccccc1 [Phenformin] (partner 250 µM)
[1]; first compound 0.01 µM
  relative viability: 0.54
[1]; first compound 0.03162 µM
  relative viability: 0.618
[1]; first compound 0.3162 µM
  relative viability: 0.61
[6]; first compound 0.01 µM
  relative viability: 0.181
[6]; first compound 0.03162 µM
  relative viability: 0.227
[6]; first compound 0.3162 µM
  relative viability: 0.176
[2]; first compound 0.03162 µM
  relative viability: 0.591
[2]; first compound 0.3162 µM
  relative viability: 0.524

## C[C@@H]1CN(CC(=O)Nc2ccc3c(c2)Cc2cccc(-c4cc(=O)cc(N5CCOCC5)o4)c2S3)C[C@H](C)O1 + N=C(N)NC(=N)NCCc1ccccc1 [Phenformin] (partner 250 µM)
[1]; first compound 0.04 µM
  relative viability: 0.523
[1]; first compound 0.1265 µM
  relative viability: 0.617
[1]; first compound 0.4 µM
  relative viability: 0.54
[1]; first compound 4 µM
  relative viability: 0.61
[6]; first compound 0.04 µM
  relative viability: 0.106
[6]; first compound 0.1265 µM
  relative viability: 0.197
[6]; first compound 0.4 µM
  relative viability: 0.252
[6]; first compound 4 µM
  relative viability: 0.138
[2]; first compound 0.04 µM
  relative viability: 0.712
[2]; first compound 0.1265 µM
  relative viability: 0.505
[2]; first compound 0.4 µM
  relative viability: 0.598
[2]; first compound 4 µM
  relative viability: 0.425

## Clc1ccc(Nc2nnc(Cc3ccncc3)c3ccccc23)cc1 [Vatalanib] + N=C(N)NC(=N)NCCc1ccccc1 [Phenformin] (partner 250 µM)
[1]; first compound 0.04 µM
  relative viability: 0.584
[1]; first compound 0.1265 µM
  relative viability: 0.577
[1]; first compound 0.4 µM
  relative viability: 0.514
[1]; first compound 1.265 µM
  relative viability: 0.581
[1]; first compound 4 µM
  relative viability: 0.524
[6]; first compound 0.04 µM
  relative viability: 0.206
[6]; first compound 0.1265 µM
  relative viability: 0.131
[6]; first compound 0.4 µM
  relative viability: 0.104
[6]; first compound 1.265 µM
  relative viability: 0.143
[6]; first compound 4 µM
  relative viability: 0.154
[2]; first compound 0.04 µM
  relative viability: 0.633
[2]; first compound 0.1265 µM
  relative viability: 0.495
[2]; first compound 0.4 µM
  relative viability: 0.328
[2]; first compound 1.265 µM
  relative viability: 0.539
[2]; first compound 4 µM
  relative viability: 0.567

## COc1cc(N2CCC(C(N)=O)CC2)ccc1Nc1nc(N)c(Cl)c(Nc2ccccc2S(=O)(=O)C(C)C)n1 [HG-5-88-01] + Cc1nc(Nc2ncc(C(=O)Nc3c(C)cccc3Cl)s2)cc(N2CCN(CCO)CC2)n1 [Dasatinib] (partner 0.075 µM)
[1]; first compound 0.04 µM
  relative viability: 0.533
[1]; first compound 0.1265 µM
  relative viability: 0.532
[1]; first compound 0.4 µM
  relative viability: 0.498
[1]; first compound 4 µM
  relative viability: 0.486
[2]; first compound 0.04 µM
  relative viability: 0.382
[2]; first compound 0.1265 µM
  relative viability: 0.36
[2]; first compound 0.4 µM
  relative viability: 0.154
[2]; first compound 1.265 µM
  relative viability: 0.0794
[2]; first compound 4 µM
  relative viability: 0.0951

## COc1cc(N2CCC(C(N)=O)CC2)ccc1Nc1nc(N)c(Cl)c(Nc2ccccc2S(=O)(=O)C(C)C)n1 [HG-5-88-01] + N=C(N)NC(=N)NCCc1ccccc1 [Phenformin] (partner 250 µM)
[1]; first compound 0.04 µM
  relative viability: 0.651
[1]; first compound 0.1265 µM
  relative viability: 0.618
[1]; first compound 0.4 µM
  relative viability: 0.561
[1]; first compound 4 µM
  relative viability: 0.524
[6]; first compound 0.04 µM
  relative viability: 0.246
[6]; first compound 0.1265 µM
  relative viability: 0.24
[6]; first compound 0.4 µM
  relative viability: 0.327
[6]; first compound 1.265 µM
  relative viability: 0.347
[6]; first compound 4 µM
  relative viability: 0.183
[2]; first compound 0.04 µM
  relative viability: 0.543
[2]; first compound 0.1265 µM
  relative viability: 0.572
[2]; first compound 0.4 µM
  relative viability: 0.533
[2]; first compound 1.265 µM
  relative viability: 0.392
[2]; first compound 4 µM
  relative viability: 0.253
